Patent US20090054375A1, “Compositions, Systems, and/or Methods Involving Chlorine Dioxide” (priority 2007, published 2009)

Assay: Enhanced solubility of beta-cyclodextrin in water containing ClO2 (slurry test)
Assay type: physicochemical
Conditions: 100 g slurries of 5% beta-cyclodextrin (w/w) in 8000 ppm ClO2 vs ultrapure water, mixed at 200 rpm for 3 days, dried 2 days

weight of dried undissolved beta-cyclodextrin from the ClO2 containing slurry, less than the control slurry: 0.32 g
Compound: OC[C@H]1O[C@@H]2O[C@H]3[C@H](O)[C@@H](O)[C@@H](O[C@H]4[C@H](O)[C@@H](O)[C@@H](O[C@H]5[C@H](O)[C@@H](O)[C@@H](O[C@H]6[C@H](O)[C@@H](O)[C@@H](O[C@H]7[C@H](O)[C@@H](O)[C@@H](O[C@H]8[C@H](O)[C@@H](O)[C@@H](O[C@H]1[C@H](O)[C@H]2O)O[C@@H]8CO)O[C@@H]7CO)O[C@@H]6CO)O[C@@H]5CO)O[C@@H]4CO)O[C@@H]3CO [beta-cyclodextrin]
